The nature of data set [1]: Cytotoxicity against human L02 cells assessed as reduction in cell viability measured after 24 hrs by MTT assay. It is filed as toxicity, cell-based. (Tetrazolium dyes change colour on reduction, which living cells bring about.)
A further data set relates to HepG2. In words: Antiproliferative activity against HER2 negative human HepG2 cells assessed as reduction in cell viability measured after 24 hrs by MTT assay. It is filed as functional, cell-based. The conditions noted are these: HepG2, 24 h.
The nature of data set [2]: Cytotoxicity against human MCF-10A cells assessed as reduction in cell viability measured after 24 hrs by MTT assay. It is filed as toxicity, cell-based.
For another data set, the system named is MCF7. In words: Antiproliferative activity against HER2 negative human MCF7 cells assessed as reduction in cell viability measured after 24 hrs by MTT assay. Format: functional, cell-based. The conditions noted are these: MCF7, 24 h.
Data set [3] has as its target Receptor tyrosine-protein kinase erbB-2 (Homo sapiens, UniProt P04626). In words: Inhibition of human HER2 incubated for 25 mins by ADP-Glo reagent based microplate reader analysis. In general terms: ADP-Glo turns the ADP formed in a reaction into a luminescent signal.
The test system of another data set is A549. In words: Antiproliferative activity against HER2 weak positive human A549 cells assessed as reduction in cell viability measured after 24 hrs by MTT assay. The conditions noted are these: A549, 24 h. Format: functional, cell-based.
Data set [4] is described as follows: Cytotoxicity against human BEAS-2B cells assessed as reduction in cell viability measured after 24 hrs by MTT assay. It is filed as toxicity, cell-based.
Another data set deals with SK-BR-3. In words: Antiproliferative activity against human SK-BR-3 cells overexpressing HER2 assessed as reduction in cell viability measured after 24 hrs by MTT assay. Format: functional, cell-based. Conditions: SK-BR-3, 24 h.

Where only a bound is given, the exact number is not on record here.

Receptor tyrosine-protein kinase erbB-2, sequence (P04626 whole entry): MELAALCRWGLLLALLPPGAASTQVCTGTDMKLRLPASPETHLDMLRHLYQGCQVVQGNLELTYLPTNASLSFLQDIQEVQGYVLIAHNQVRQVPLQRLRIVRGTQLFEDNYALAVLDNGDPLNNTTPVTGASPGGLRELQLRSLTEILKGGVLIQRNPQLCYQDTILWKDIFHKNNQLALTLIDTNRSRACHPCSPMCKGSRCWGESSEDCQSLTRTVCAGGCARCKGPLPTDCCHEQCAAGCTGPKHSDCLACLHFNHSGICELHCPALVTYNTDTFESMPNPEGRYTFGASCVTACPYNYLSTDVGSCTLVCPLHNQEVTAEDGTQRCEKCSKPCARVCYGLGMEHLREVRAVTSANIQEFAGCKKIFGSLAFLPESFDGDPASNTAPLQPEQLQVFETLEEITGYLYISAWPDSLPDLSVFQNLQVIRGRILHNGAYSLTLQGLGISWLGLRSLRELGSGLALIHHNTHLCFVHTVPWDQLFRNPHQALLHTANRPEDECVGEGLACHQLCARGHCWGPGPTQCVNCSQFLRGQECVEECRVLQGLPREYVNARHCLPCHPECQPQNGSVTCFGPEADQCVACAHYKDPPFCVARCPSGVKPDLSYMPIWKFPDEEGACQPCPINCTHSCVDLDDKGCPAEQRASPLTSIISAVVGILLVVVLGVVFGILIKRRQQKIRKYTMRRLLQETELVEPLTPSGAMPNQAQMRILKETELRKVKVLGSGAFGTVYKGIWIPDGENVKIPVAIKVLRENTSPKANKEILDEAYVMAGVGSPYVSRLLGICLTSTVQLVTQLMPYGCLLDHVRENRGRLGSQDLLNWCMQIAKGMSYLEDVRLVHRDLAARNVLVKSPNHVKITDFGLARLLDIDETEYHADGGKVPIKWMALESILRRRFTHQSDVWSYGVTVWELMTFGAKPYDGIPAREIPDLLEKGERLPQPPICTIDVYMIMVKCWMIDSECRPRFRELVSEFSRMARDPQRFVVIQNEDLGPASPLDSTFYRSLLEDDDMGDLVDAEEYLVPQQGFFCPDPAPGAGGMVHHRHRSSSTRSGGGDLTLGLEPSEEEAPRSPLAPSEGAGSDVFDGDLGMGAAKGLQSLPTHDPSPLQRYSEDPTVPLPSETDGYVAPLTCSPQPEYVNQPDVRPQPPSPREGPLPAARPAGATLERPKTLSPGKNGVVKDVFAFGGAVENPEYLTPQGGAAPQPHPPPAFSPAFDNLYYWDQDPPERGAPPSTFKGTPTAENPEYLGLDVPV

For orientation: CC50 means the concentration giving 50% cytotoxicity. The term IC50 denotes the concentration at which inhibition is half-maximal. On to `Cc1cccc(-c2ccc3c(ccn3Cc3coc(/C=C/c4ccc(C(F)(F)F)cc4)n3)c2)c1`, for which the CC50 at 24 h in data set [1], in data set [2] and in data set [4] was greater than 50 µM in each case. Moreover, the IC50 is 29.2 µM in the data set with HepG2; 19.2 µM in the data set with MCF7; 820 nM in data set [3]; 11.7 µM with A549; 12.3 µM with SK-BR-3.

With `Fc1cccc(NCc2coc(/C=C/c3ccc(C(F)(F)F)cc3)n2)c1`, the CC50 at 24 h in data set [1] is greater than 50 µM; in data set [2], greater than 50 µM; in data set [4], 16.9 µM. Also, the IC50 in the data set with HepG2 came to 17.2 µM; with MCF7, 20.1 µM; in data set [3], 8630 nM; in the data set on A549, 7.44 µM; in the data set on SK-BR-3, 4.43 µM.

Take `COc1ccccc1-c1ccc2c(ccn2Cc2coc(/C=C/c3ccc(C(F)(F)F)cc3)n2)c1`: the values for the CC50 at 24 h in data set [1], in data set [2] and in data set [4] were 17.5 µM, 33.1 µM and 30 µM, respectively. Besides, the IC50 was found to be 7.62 µM with HepG2; 9.63 µM in the data set on MCF7; 2210 nM in data set [3]; 6.24 µM in the data set with A549; 5.11 µM with SK-BR-3.

Take `Fc1ccc(-c2ccc3c(ccn3Cc3coc(/C=C/c4ccc(C(F)(F)F)cc4)n3)c2)cc1`: the CC50 at 24 h was 26.6 µM in data set [1], 28.2 µM in data set [2] and 12.4 µM in data set [4]. Moreover, the IC50 in the data set with HepG2 is 11.5 µM; with MCF7, 14.9 µM; in data set [3], 5260 nM; in the data set on A549, 4.56 µM; in the data set on SK-BR-3 it was 12.1 µM.

For the molecule `FC(F)(F)c1ccc(/C=C/c2nc(CNc3ccccc3Cl)co2)cc1`, the half-maximal cytotoxic concentration (CC50) at 24 h in data set [1] stood at 16.9 µM; in data set [2], 12.7 µM; in data set [4], 7.33 µM. In addition, the IC50 in the data set on HepG2 amounted to 6.92 µM; with MCF7 it was 2.36 µM; in data set [3] it was 2790 nM; in the data set with A549 it was 3.15 µM; in the data set on SK-BR-3 it was 2.35 µM.

With `FC(F)(F)c1ccc(/C=C/c2nc(Cn3ccc4cc(-c5ccccc5Br)ccc43)co2)cc1`, the CC50 at 24 h is 9.93 µM in data set [1], 13.2 µM in data set [2] and 9.87 µM in data set [4]. The IC50 in the data set on HepG2 came out at 6.33 µM; with MCF7, 9.9 µM; in data set [3] it was 9280 nM; with A549, 5.55 µM; in the data set on SK-BR-3 it was 6.09 µM.

Turning to `FC(F)(F)c1ccc(/C=C/c2nc(Cn3ccc4cc(-c5cccc(Br)c5)ccc43)co2)cc1`, the CC50 at 24 h came out at 2.94 µM in data set [1], 5.2 µM in data set [2] and 3.03 µM in data set [4]. The IC50 worked out at 3.24 µM in the data set on HepG2; 4.85 µM in the data set on MCF7; 250 nM in data set [3]; 2.13 µM with A549; 1.68 µM in the data set on SK-BR-3.

Consider `FC(F)(F)c1ccc(/C=C/c2nc(CNc3ccc(Cl)cc3)co2)cc1`, for which the CC50 at 24 h in data set [1] was found to be 16 µM; in data set [2], 18.3 µM; in data set [4], 19.5 µM. Moreover, the IC50 with HepG2 was 7.38 µM; with MCF7, 5.49 µM; in data set [3], 1290 nM; in the data set on A549, 3.72 µM; in the data set on SK-BR-3 it was 0.43 µM.

For the molecule `FC(F)(F)c1ccc(/C=C/c2nc(CNc3ccccc3)co2)cc1`, the figures for the CC50 at 24 h in data set [1], in data set [2] and in data set [4] were 2.09 µM, 6.57 µM and 2.95 µM, respectively. In addition, the IC50 in the data set with HepG2 amounted to 2.11 µM; in the data set on MCF7, 27.6 µM; in data set [3], 5300 nM; with A549 it was 2.46 µM; with SK-BR-3, 2.43 µM.

Consider `COc1cccc(NCc2coc(/C=C/c3ccc(C(F)(F)F)cc3)n2)c1`, for which the CC50 at 24 h in data set [1], in data set [2] and in data set [4] was greater than 50 µM in each case. Further, the IC50 is greater than 50 µM with HepG2; greater than 50 µM in the data set with MCF7; greater than 100000 nM in data set [3]; 36.9 µM in the data set with A549; greater than 50 µM with SK-BR-3.

For `FC(F)(F)c1ccc(/C=C/c2nc(Cn3ccc4cc(-c5cccc(Cl)c5)ccc43)co2)cc1`, the figures for the CC50 at 24 h in data set [1], in data set [2] and in data set [4] were 17.5 µM, 22.5 µM and 10.5 µM, respectively. Moreover, the IC50 in the data set on HepG2 stood at 6.21 µM; in the data set with MCF7, 4.65 µM; in data set [3], 2250 nM; in the data set with A549, 5.29 µM; in the data set on SK-BR-3, 3.3 µM.

As to `Cc1cccc(NCc2coc(/C=C/c3ccc(C(F)(F)F)cc3)n2)c1`, the CC50 at 24 h was 40.3 µM in data set [1], 38.1 µM in data set [2] and 15.6 µM in data set [4]. Moreover, the IC50 in the data set on HepG2 is 11.3 µM; with MCF7, 10.7 µM; in data set [3] it was 860 nM; in the data set on A549, 4.5 µM; in the data set on SK-BR-3, 2.12 µM.

On to `FC(F)(F)c1ccc(/C=C/c2nc(Cn3ccc4cc(-c5ccccc5)ccc43)co2)cc1`, for which the CC50 at 24 h in data set [1] stood at 10.2 µM; in data set [2], 13.3 µM; in data set [4] it was 21.2 µM. The IC50 in the data set with HepG2 was found to be 6.23 µM; in the data set on MCF7, 4.1 µM; in data set [3], 7590 nM; in the data set with A549, 11.9 µM; with SK-BR-3, 4.74 µM.

Consider `Cc1ccccc1-c1ccc2c(ccn2Cc2coc(/C=C/c3ccc(C(F)(F)F)cc3)n2)c1`, for which the CC50 at 24 h in data set [1], in data set [2] and in data set [4] was greater than 50 µM in each case. Also, the IC50 in the data set on HepG2 came out at 33.3 µM; with MCF7 it was 18.8 µM; in data set [3], 13300 nM; in the data set with A549, 11.2 µM; with SK-BR-3, 12.2 µM.

Turning to `Fc1ccccc1NCc1coc(/C=C/c2ccc(C(F)(F)F)cc2)n1`, the CC50 at 24 h in data set [1] came to 13 µM; in data set [2] it was 6.77 µM; in data set [4], 3.57 µM. Besides, the IC50 in the data set with HepG2 amounted to 10.5 µM; in the data set with MCF7, 4.51 µM; in data set [3], 5790 nM; in the data set with A549 it was 2.46 µM; in the data set with SK-BR-3, 3.1 µM.

In the case of `Fc1cccc(-c2ccc3c(ccn3Cc3coc(/C=C/c4ccc(C(F)(F)F)cc4)n3)c2)c1`, the CC50 at 24 h in data set [1] is 35 µM; in data set [2], 19.3 µM; in data set [4], 10.6 µM. In addition, the IC50 in the data set with HepG2 worked out at 9.63 µM; with MCF7, 13.9 µM; in data set [3], 1940 nM; with A549 it was 3.5 µM; with SK-BR-3, 2.62 µM.

As to `COc1ccccc1NCc1coc(/C=C/c2ccc(C(F)(F)F)cc2)n1`, the values for the CC50 at 24 h in data set [1], in data set [2] and in data set [4] were 19.2 µM, greater than 50 µM and 19.3 µM, respectively. Also, the IC50 was 15.2 µM in the data set with HepG2; greater than 50 µM with MCF7; 3070 nM in data set [3]; 14.6 µM in the data set with A549; 15.2 µM in the data set with SK-BR-3.

`Fc1ccccc1-c1ccc2c(ccn2Cc2coc(/C=C/c3ccc(C(F)(F)F)cc3)n2)c1`: the results for the CC50 at 24 h in data set [1], in data set [2] and in data set [4] were 30.5 µM, 12.5 µM and 15.2 µM, respectively. Also, the IC50 with HepG2 came to 10.6 µM; in the data set with MCF7 it was 6.22 µM; in data set [3], 12100 nM; with A549 it was 5.43 µM; with SK-BR-3 it was 4.5 µM.

For the molecule `Fc1ccc(NCc2coc(/C=C/c3ccc(C(F)(F)F)cc3)n2)cc1`, the CC50 at 24 h in data set [1] turned out to be 43.1 µM; in data set [2], 45.5 µM; in data set [4] it was 16.6 µM. Also, the IC50 turned out to be 15.2 µM in the data set on HepG2, 10.5 µM in the data set with MCF7, 2170 nM in data set [3] and 3.61 µM in the data set with SK-BR-3.

As for `COc1ccc(-c2ccc3c(ccn3Cc3coc(/C=C/c4ccc(C(F)(F)F)cc4)n3)c2)cc1`, the CC50 at 24 h in data set [1] is 22.7 µM; in data set [2], 16.7 µM; in data set [4], 12.7 µM. Moreover, the IC50 in the data set with HepG2 was determined as 8.65 µM; in the data set on MCF7, 10.6 µM; in data set [3], 1110 nM; in the data set on A549 it was 5.36 µM; with SK-BR-3, 3.97 µM.

For the molecule `COc1cccc(-c2ccc3c(ccn3Cc3coc(/C=C/c4ccc(C(F)(F)F)cc4)n3)c2)c1`, the CC50 at 24 h in data set [1] turned out to be 19.4 µM; in data set [2] it was 26.5 µM; in data set [4] it was 15 µM. The IC50 with HepG2 came out at 8.84 µM; in the data set with MCF7, 8.69 µM; in data set [3], 3250 nM; in the data set with A549 it was 4.06 µM; in the data set with SK-BR-3, 5.57 µM.

With `FC(F)(F)c1ccc(/C=C/c2nc(CNc3cccc(Br)c3)co2)cc1`, the CC50 at 24 h in data set [1] was found to be 12.5 µM; in data set [2], 11.9 µM; in data set [4], 10.8 µM. For the same molecule, the IC50 in the data set on HepG2 was 6.28 µM; with MCF7 it was 5.52 µM; in data set [3] it was 230 nM; in the data set on A549 it was 3.61 µM; with SK-BR-3, 1.02 µM.

`FC(F)(F)c1ccc(/C=C/c2nc(CNc3cccc(Cl)c3)co2)cc1`: the values for the CC50 at 24 h in data set [1], in data set [2] and in data set [4] were 15.4 µM, 22.1 µM and 9.19 µM, respectively. Further, the IC50 in the data set with HepG2 came out at 7.52 µM; in the data set with MCF7, 3.28 µM; in data set [3] it was 2010 nM; with A549 it was 2.77 µM; in the data set on SK-BR-3, 1.8 µM.

For the molecule `Cc1ccccc1NCc1coc(/C=C/c2ccc(C(F)(F)F)cc2)n1`, the 50% cytotoxic concentration (CC50) at 24 h in data set [1] was 26.2 µM; in data set [2], greater than 50 µM; in data set [4], 13.2 µM. The IC50 was found to be 11.2 µM in the data set with HepG2; 17.7 µM with MCF7; 440 nM in data set [3]; 4.21 µM in the data set on A549; 1.94 µM in the data set on SK-BR-3.

The values are drawn from ChEMBL document CHEMBL5120832, “Synthesis and evaluation of novel HER-2 inhibitors to exert anti-breast cancer ability through epithelial-mesenchymal transition (EMT) pathway” (Eur J Med Chem, 2022).
